Assay results published in patent US8664257B2, “Oxygen-substituted 3-heteroaroylamino-propionic acid derivatives and their use as pharmaceuticals” (Sanofi, priority 2010, dated 2014).

Each compound was assayed against T1, Recombinant human cathepsin A (Homo sapiens, UniProt P10619) (assay: Cathepsin A inhibitory activity). Details: read-out: Activity (2): Cathepsin A inhibitory activity, IC50 class.
T1 construct: Recombinant human cathepsin A (residues 29-480, with a C-terminal 10-His tag); 10-His (C); purchased R&D Systems 1049-SE
T1 sequence (P10619 29-312 limits assumed): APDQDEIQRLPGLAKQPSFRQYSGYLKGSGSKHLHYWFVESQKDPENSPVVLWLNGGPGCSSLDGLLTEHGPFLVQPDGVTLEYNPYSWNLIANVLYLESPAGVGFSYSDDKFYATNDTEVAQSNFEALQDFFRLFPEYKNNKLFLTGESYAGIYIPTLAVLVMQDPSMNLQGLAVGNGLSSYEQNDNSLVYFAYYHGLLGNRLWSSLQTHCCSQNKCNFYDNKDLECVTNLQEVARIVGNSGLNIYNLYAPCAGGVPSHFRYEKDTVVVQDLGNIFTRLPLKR
T1 sequence (P10619 327-480 limits assumed): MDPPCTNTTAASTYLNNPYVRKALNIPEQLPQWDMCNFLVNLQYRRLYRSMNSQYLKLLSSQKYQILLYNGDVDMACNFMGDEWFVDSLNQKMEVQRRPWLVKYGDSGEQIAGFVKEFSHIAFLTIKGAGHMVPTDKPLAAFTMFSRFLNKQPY
Format: biochemical
Procedure, shortened: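 Read-out was microfluidic separation of cleaved vs. uncleaved Bodipy FL-bradykinin (2 μM), giving turnover, % inhibition and IC50. Compound and 833 ng/ml enzyme met for 15 min RT in pH 5.5 MES/DTT before substrate (15 min RT). The 29-480 His-tagged human enzyme was first activated by cathepsin L, then E-64 (10 μM).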

For `O=C(O)C[C@H](NC(=O)c1cc(O)n(-c2cccc(F)c2)n1)c1ccc(F)cc1` [Example 311], which IC50 is on record?
Its IC50 is 100 to 1000 nM.

`O=C(O)C[C@H](NC(=O)c1cc(O)n(-c2cccc(F)c2)n1)c1cccc(F)c1` [Example 312] was tested. Which IC50 did it give?
Its IC50 is 100 to 1000 nM.

How did the IC50 turn out when `O=C(O)C[C@H](NC(=O)c1cc(O)n(-c2cccc(F)c2)n1)c1ccc(C(F)(F)F)cc1` [Example 313] was run?
Its IC50 is 1000 to 30000 nM.

With `O=C(O)CC(NC(=O)c1cc(O)n(-c2cccc(F)c2)n1)c1cccc(Cl)c1Cl` (stereo not drawn) [Example 314] as the compound, how does the IC50 read?
Its IC50 is under 100 nM.

With `O=C(O)CC(NC(=O)c1cc(O)n(-c2cccc(F)c2)n1)c1ccc(OC(F)(F)F)cc1` (stereo not drawn) [Example 315] as the compound, how does the IC50 read?
The IC50 was 100 to 1000 nM.

`COc1ccccc1[C@@H](NC(=O)c1cc(O)n(-c2cccc(F)c2)n1)[C@@H](O)C(=O)O` [Example 316] was tested. Which IC50 did it give?
Its IC50 is 1000 to 30000 nM.

How did the IC50 turn out when `Cc1cccc([C@H](CC(=O)O)NC(=O)c2cc(O)n(-c3cccc(F)c3)n2)c1` [Example 317] was run?
The IC50 was 100 to 1000 nM.

For `O=C(O)C[C@H](NC(=O)c1cc(O)n(-c2cccc(F)c2)n1)c1cccc(C(F)(F)F)c1` [Example 318], which IC50 is on record?
The IC50 was 100 to 1000 nM.

For `O=C(O)CC(NC(=O)c1cc(O)n(-c2cccc(F)c2)n1)c1ccc(-c2cccc(F)c2)cc1` (stereo not drawn) [Example 319], which IC50 is on record?
Its IC50 is 100 to 1000 nM.

With `O=C(O)CC(NC(=O)c1cc(O)n(-c2cccc(F)c2)n1)c1ccc(Cl)cc1F` (stereo not drawn) [Example 320] as the compound, how does the IC50 read?
The IC50 was 100 to 1000 nM.

`Cc1ccc(C)c(C(CC(=O)O)NC(=O)c2cc(O)n(-c3cccc(F)c3)n2)c1` (stereo not drawn) [Example 321] was tested. Which IC50 did it give?
Its IC50 is 100 to 1000 nM.

For `O=C(O)CC(NC(=O)c1cc(O)n(-c2cccc(F)c2)n1)c1cccc(Cl)c1F` (stereo not drawn) [Example 322], which IC50 is on record?
Its IC50 is 100 to 1000 nM.

For `O=C(O)CC(NC(=O)c1cc(O)n(-c2cccc(F)c2)n1)c1cccc(C(F)(F)F)c1Cl` (stereo not drawn) [Example 323], which IC50 is on record?
Its IC50 is 100 to 1000 nM.

Which IC50 does the source give for `CCc1ccc(C(CC(=O)O)NC(=O)c2cc(O)n(-c3cccc(F)c3)n2)cc1` (stereo not drawn) [Example 324] here?
The IC50 was 100 to 1000 nM.

Which IC50 does the source give for `Cc1ccc(C(CC(=O)O)NC(=O)c2cc(O)n(-c3cccc(F)c3)n2)c(C)c1` (stereo not drawn) [Example 325] here?
Its IC50 is 100 to 1000 nM.

Which IC50 does the source give for `Cc1cc(F)ccc1C(CC(=O)O)NC(=O)c1cc(O)n(-c2cccc(F)c2)n1` (stereo not drawn) [Example 326] here?
Its IC50 is 100 to 1000 nM.

`O=C(O)CC(NC(=O)c1cc(O)n(-c2cccc(F)c2)n1)c1ccc(-c2ccccc2)cc1` (stereo not drawn) [Example 327] was tested. Which IC50 did it give?
The IC50 was 100 to 1000 nM.

For `O=C(O)CC(NC(=O)c1cc(O)n(-c2cccc(F)c2)n1)c1ccc(Cl)c(Cl)c1` (stereo not drawn) [Example 328], which IC50 is on record?
The IC50 was 100 to 1000 nM.

Which IC50 does the source give for `O=C(O)C[C@H](NC(=O)c1cc(O)n(-c2cccc(F)c2)n1)c1ccccc1C(F)(F)F` [Example 329] here?
Its IC50 is 100 to 1000 nM.

With `O=C(O)CC(NC(=O)c1cc(O)n(-c2cccc(F)c2)n1)c1ccc(Oc2ccccc2)cc1` (stereo not drawn) [Example 330] as the compound, how does the IC50 read?
Its IC50 is 100 to 1000 nM.

With `O=C(O)C[C@H](NC(=O)c1cc(O)n(-c2cccc(F)c2)n1)c1ccc(Cl)cc1` [Example 331] as the compound, how does the IC50 read?
Its IC50 is 100 to 1000 nM.

How did the IC50 turn out when `O=C(O)C[C@H](NC(=O)c1cc(O)n(-c2cccc(F)c2)n1)c1ccc(Cl)cc1Cl` [Example 332] was run?
Its IC50 is 100 to 1000 nM.

For `O=C(O)CC(NC(=O)c1cc(O)n(-c2cccc(F)c2)n1)c1ccc(-c2ccc(F)cc2)cc1` (stereo not drawn) [Example 333], which IC50 is on record?
Its IC50 is 1000 to 30000 nM.

How did the IC50 turn out when `O=C(O)C[C@H](NC(=O)c1cc(O)n(-c2cccc(F)c2)n1)c1cccnc1` [Example 334] was run?
Its IC50 is 100 to 1000 nM.

`COc1ccc([C@H](CC(=O)O)NC(=O)c2cc(O)n(-c3cccc(F)c3)n2)cn1` [Example 335] was tested. Which IC50 did it give?
The IC50 was 100 to 1000 nM.

With `O=C(O)CC(NC(=O)c1cc(O)n(-c2ccc(F)cc2)n1)c1cccc2c1OCO2` (stereo not drawn) [Example 336] as the compound, how does the IC50 read?
Its IC50 is 100 to 1000 nM.

`COc1ccc(C(CC(=O)O)NC(=O)c2cc(O)n(-c3ccc(F)cc3)n2)c(C)c1` (stereo not drawn) [Example 337] was tested. Which IC50 did it give?
The IC50 was 100 to 1000 nM.

How did the IC50 turn out when `O=C(O)CC(NC(=O)c1cc(O)n(-c2ccc(F)cc2)n1)c1cccc(Cl)c1` (stereo not drawn) [Example 338] was run?
Its IC50 is 100 to 1000 nM.

For `O=C(O)C[C@H](NC(=O)c1cc(O)n(-c2ccc(F)cc2)n1)c1ccccc1Br` [Example 339], which IC50 is on record?
Its IC50 is 100 to 1000 nM.

Which IC50 does the source give for `N#Cc1cccc([C@H](CC(=O)O)NC(=O)c2cc(O)n(-c3ccc(F)cc3)n2)c1` [Example 340] here?
Its IC50 is 1000 to 30000 nM.

For `N#Cc1ccc([C@H](CC(=O)O)NC(=O)c2cc(O)n(-c3ccc(F)cc3)n2)cc1` [Example 341], which IC50 is on record?
Its IC50 is 100 to 1000 nM.

For `COc1ccccc1[C@H](CC(=O)O)NC(=O)c1cc(O)n(-c2ccc(F)cc2)n1` [Example 342], which IC50 is on record?
The IC50 was 100 to 1000 nM.

With `O=C(O)CC(NC(=O)c1cc(O)n(-c2ccc(F)cc2)n1)c1ccccc1F` (stereo not drawn) [Example 343] as the compound, how does the IC50 read?
The IC50 was 1000 to 30000 nM.

With `COc1ccc(Cl)cc1C(CC(=O)O)NC(=O)c1cc(O)n(-c2ccc(F)cc2)n1` (stereo not drawn) [Example 344] as the compound, how does the IC50 read?
The IC50 was 100 to 1000 nM.

How did the IC50 turn out when `COc1ccc(C(CC(=O)O)NC(=O)c2cc(O)n(-c3ccc(F)cc3)n2)c(Cl)c1` (stereo not drawn) [Example 345] was run?
The IC50 was 100 to 1000 nM.

`O=C(O)C[C@H](NC(=O)c1cc(O)n(-c2ccc(F)cc2)n1)c1ccc(F)cc1` [Example 346] was tested. Which IC50 did it give?
The IC50 was 1000 to 30000 nM.

How did the IC50 turn out when `O=C(O)C[C@H](NC(=O)c1cc(O)n(-c2ccc(F)cc2)n1)c1cccc(Cl)c1Cl` [Example 347] was run?
The IC50 was 100 to 1000 nM.

Which IC50 does the source give for `COc1cccc([C@H](CC(=O)O)NC(=O)c2cc(O)n(-c3ccc(F)cc3)n2)c1` [Example 348] here?
Its IC50 is 1000 to 30000 nM.

With `O=C(O)C[C@H](NC(=O)c1cc(O)n(-c2ccc(F)cc2)n1)c1cccc(F)c1` [Example 349] as the compound, how does the IC50 read?
Its IC50 is 100 to 1000 nM.

How did the IC50 turn out when `O=C(O)C[C@H](NC(=O)c1cc(O)n(-c2ccc(F)cc2)n1)c1cccc(Cl)c1` [Example 350] was run?
Its IC50 is 100 to 1000 nM.

Which IC50 does the source give for `O=C(O)C[C@H](NC(=O)c1cc(O)n(-c2ccc(F)cc2)n1)c1ccc(C(F)(F)F)cc1` [Example 351] here?
The IC50 was 1000 to 30000 nM.

How did the IC50 turn out when `O=C(O)CC(NC(=O)c1cc(O)n(-c2ccc(F)cc2)n1)c1cccc(Cl)c1Cl` (stereo not drawn) [Example 352] was run?
Its IC50 is 100 to 1000 nM.

`COc1cccc([C@H](CC(=O)O)NC(=O)c2cc(O)n(-c3ccc(F)cc3)n2)c1OC` [Example 353] was tested. Which IC50 did it give?
The IC50 was 100 to 1000 nM.

With `Cc1cccc([C@H](CC(=O)O)NC(=O)c2cc(O)n(-c3ccc(F)cc3)n2)c1` [Example 354] as the compound, how does the IC50 read?
Its IC50 is 100 to 1000 nM.

With `O=C(O)C[C@H](NC(=O)c1cc(O)n(-c2ccc(F)cc2)n1)c1cccc(C(F)(F)F)c1` [Example 355] as the compound, how does the IC50 read?
Its IC50 is 100 to 1000 nM.

`O=C(O)CC(NC(=O)c1cc(O)n(-c2ccc(F)cc2)n1)c1ccc(-c2cccc(F)c2)cc1` (stereo not drawn) [Example 356] was tested. Which IC50 did it give?
The IC50 was 100 to 1000 nM.

For `O=C(O)CC(NC(=O)c1cc(O)n(-c2ccc(F)cc2)n1)c1ccc(Cl)cc1F` (stereo not drawn) [Example 357], which IC50 is on record?
The IC50 was 100 to 1000 nM.

`Cc1cccc(C(CC(=O)O)NC(=O)c2cc(O)n(-c3ccc(F)cc3)n2)c1C` (stereo not drawn) [Example 358] was tested. Which IC50 did it give?
The IC50 was 100 to 1000 nM.

With `Cc1ccc(C)c(C(CC(=O)O)NC(=O)c2cc(O)n(-c3ccc(F)cc3)n2)c1` (stereo not drawn) [Example 359] as the compound, how does the IC50 read?
The IC50 was 1000 to 30000 nM.

`O=C(O)CC(NC(=O)c1cc(O)n(-c2ccc(F)cc2)n1)c1cccc(C(F)(F)F)c1F` (stereo not drawn) [Example 360] was tested. Which IC50 did it give?
The IC50 was 100 to 1000 nM.

For `O=C(O)CC(NC(=O)c1cc(O)n(-c2ccc(F)cc2)n1)c1cccc(Cl)c1F` (stereo not drawn) [Example 361], which IC50 is on record?
Its IC50 is 100 to 1000 nM.

How did the IC50 turn out when `O=C(O)CC(NC(=O)c1cc(O)n(-c2ccc(F)cc2)n1)c1cccc(C(F)(F)F)c1Cl` (stereo not drawn) [Example 362] was run?
The IC50 was 100 to 1000 nM.

With `CCc1ccc(C(CC(=O)O)NC(=O)c2cc(O)n(-c3ccc(F)cc3)n2)cc1` (stereo not drawn) [Example 363] as the compound, how does the IC50 read?
The IC50 was 100 to 1000 nM.

`Cc1cc(F)ccc1C(CC(=O)O)NC(=O)c1cc(O)n(-c2ccc(F)cc2)n1` (stereo not drawn) [Example 364] was tested. Which IC50 did it give?
Its IC50 is 100 to 1000 nM.

For `O=C(O)CC(NC(=O)c1cc(O)n(-c2ccc(F)cc2)n1)c1ccc(-c2ccccc2)cc1` (stereo not drawn) [Example 365], which IC50 is on record?
The IC50 was 100 to 1000 nM.

Which IC50 does the source give for `O=C(O)C[C@H](NC(=O)c1cc(O)n(-c2ccc(F)cc2)n1)c1ccccc1F` [Example 366] here?
Its IC50 is 100 to 1000 nM.

How did the IC50 turn out when `O=C(O)C[C@H](NC(=O)c1cc(O)n(-c2ccc(F)cc2)n1)c1ccccc1C(F)(F)F` [Example 367] was run?
Its IC50 is 100 to 1000 nM.
